How the values were obtained:
Format in all cases: cell-based, human
RGP-specific TCL = assay: TCL proliferation assay (3H-thymidine incorporation, stimulation index); conditions: for Proliferative response, stimulation index: peptides 10 μg/ml
Procedure, shortened: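 Short-term TCL raised from PBMC with 25 or 50 μg/ml RGP extract plus irradiated autologous APC and IL-2, rested 6–7 days. 5×10^4 T cells stimulated 3 days with allergen and irradiated autologous PBMC, 16 h ^3H-thymidine pulse; SI = antigen cpm/unstimulated cpm, positive if ≧2.5, highest-proliferation concentration reported.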

[1] = test system: IL-5 production by RGP-specific TCL; assay: IL-5 detection in culture supernatants by sandwich ELISA; conditions: supernatant at 48 h, UD undetectable, limit of detection 10 pg/ml
Procedure: (§1) Cytokine Detection in Culture Supernatants
(§2) Supernatants of triplicate cultures were harvested and pooled from T cell proliferation assay cultures at 48 hours for the detection of IL-5 and IFN-γ production by sandwich ELISA. Briefly white Maxisorp (NUNC, Roskilde, Denmark) ELISA plates were coated with capture mAb (anti-IL-5, Pharmingen, San Diego, Calif., USA; anti-IFN-γ, Endogen, Woburn, Mass. USA) overnight at 4° C. Plates were then washed and wells blocked with 1% Bovine Serum Albumin/PBS for 1 hour at room temperature. Following washing, test samples (neat) and serial dilutions of recombinant human IL-5 (Pharmingen, USA) or IFN-γ (Endogen, USA) (for the construction of standard curves) were added and incubated overnight at 4° C. Following washing, plates were incubated with biotinylated detecting mAb (anti-IL-5, Pharmingen, USA; […], Endogen, USA) for 1 hour at room temperature. Plates were then washed and incubated with streptavidin-peroxidase (Amersham, Piscataway, N.J., USA) for 30 minutes at room temperature. Following washing, a chemiluminescent substrate (Du Pont, Wilmington, Del., USA) was added to each well and plates read in a Lumicount microplate Glow Luminometer (Packard Instrument Company, Meriden, Conn., USA), 0.5 seconds/well, automatic sensitivity setting. Standard curve construction and determination of test sample cytokine levels were performed using Packard I-smart software. The limits of detection for IL-5 and IFN-γ were 10 pg/ml and 2 pg/ml respectively.

[2] = test system: IFN-γ production by RGP-specific TCL; assay: IFN-γ detection in culture supernatants by sandwich ELISA; conditions: supernatant at 48 h, UD undetectable, limit of detection 2 pg/ml
Procedure: as §1, §2

[3] = Subject 4 TCL, Lol p 1 series (Table 3), RGP and Lol p 1 maximal response
[4] = Subject 15 TCL, Lol p 1 series (Table 3), RGP and Lol p 1 maximal response
[5] = Subject 15 TCL, Lol p 1 peptides
[6] = Subject 23 TCL, Lol p 1 peptides
[7] = Subject 7 TCL, Lol p 1 series (Table 3), RGP and Lol p 1 maximal response
[8] = Subject 20 TCL, Lol p 1 peptides
[9] = Subject 2 TCL, Lol p 5 peptides

KGKDKWIELKESWGAVWRID (Lolium perenne) [Lol p 1 peptide 181-200]
Proliferative response, stimulation index (RGP-specific TCL; [3]): 4.5
Proliferative response, stimulation index (RGP-specific TCL; Subject 10 TCL, Lol p 1 series (Table 3), RGP and Lol p 1 maximal response): 2.6
Proliferative response, stimulation index (RGP-specific TCL; Subject 11 TCL, Lol p 1 series (Table 3), RGP and Lol p 1 maximal response): 7.3
Proliferative response, stimulation index (RGP-specific TCL; [4]): 5.8
Proliferative response, stimulation index (RGP-specific TCL; Subject 18 TCL, Lol p 1 series (Table 3), RGP and Lol p 1 maximal response): 2.6
Proliferative response, stimulation index (RGP-specific TCL; Subject 23 TCL, Lol p 1 series (Table 3), RGP and Lol p 1 maximal response): 6.2
IL-5, proliferation inducing peptides [1, 5]: 13.3 pg/mL
IL-5, proliferation inducing peptides [1, 6]: 25.1 pg/mL
IFN-γ, proliferation inducing peptides [2, 5]: 56.6 pg/mL
IFN-γ, proliferation inducing peptides [2, 6]: 11.7 pg/mL

LDAKSTWYGKPTGAGPKDNG (Lolium perenne) [Lol p 1 peptide 19-38]
responder frequency among Lol p 1 peptide-responsive donors (RGP-specific TCL; Lol p 1 peptide-responsive RGP-specific TCL, SI ≥2.5 positive, listed as Lol p 1 (19-3 8)): 46%
Proliferative response, stimulation index (RGP-specific TCL; Subject 2 TCL, Lol p 1 series (Table 3), RGP and Lol p 1 maximal response): 5.2
Proliferative response, stimulation index (RGP-specific TCL; Subject 3 TCL, Lol p 1 series (Table 3), RGP and Lol p 1 maximal response): 3.3
Proliferative response, stimulation index (RGP-specific TCL; [3]): 12.3
Proliferative response, stimulation index (RGP-specific TCL; Subject 6 TCL, Lol p 1 series (Table 3), RGP and Lol p 1 maximal response): 2.7
Proliferative response, stimulation index (RGP-specific TCL; [7]): 3.2
Proliferative response, stimulation index (RGP-specific TCL; Subject 8 TCL, Lol p 1 series (Table 3), RGP and Lol p 1 maximal response): 3.8
Proliferative response, stimulation index (RGP-specific TCL; Subject 12 TCL, Lol p 1 series (Table 3), RGP and Lol p 1 maximal response): 7.5
Proliferative response, stimulation index (RGP-specific TCL; [4]): 10.5
Proliferative response, stimulation index (RGP-specific TCL; Subject 17 TCL, Lol p 1 series (Table 3), RGP and Lol p 1 maximal response): 5.3
Proliferative response, stimulation index (RGP-specific TCL; Subject 19 TCL, Lol p 1 series (Table 3), RGP and Lol p 1 maximal response): 10.3
Proliferative response, stimulation index (RGP-specific TCL; Subject 21 TCL, Lol p 1 series (Table 3), RGP and Lol p 1 maximal response): 3.8
IL-5, proliferation inducing peptides [1, 5]: 182.7 pg/mL
IFN-γ, proliferation inducing peptides ([2]; Subject 3 TCL, Lol p 1 peptides): 20.9 pg/mL
IFN-γ, proliferation inducing peptides [2, 5]: 204.1 pg/mL
IFN-γ, proliferation inducing peptides ([2]; Subject 19 TCL, Lol p 1 peptides): 2.8 pg/mL

Lol p 1 peptide 37-56: synthetic 20-mer, amino acids 37-56 of Lol p 1A (SEQ ID NO:1) (NCGACGYKDVDKAPFNGMTG; Lolium perenne)
Proliferative response, stimulation index (RGP-specific TCL; [3]): 2.5
Proliferative response, stimulation index (RGP-specific TCL; Subject 20 TCL, Lol p 1 series (Table 3), RGP and Lol p 1 maximal response): 2.6
IL-5, proliferation inducing peptides [1, 8]: 46.9 pg/mL
IFN-γ, proliferation inducing peptides [2, 8]: 11.1 pg/mL

Lol p 1 peptide 64-83: synthetic 20-mer, amino acids 64-83 of Lol p 1A (SEQ ID NO:1) (KDGRGCGSCFEIKCTKPESC; Lolium perenne)
Proliferative response, stimulation index (RGP-specific TCL; Subject 1 TCL, Lol p 1 series (Table 3), RGP and Lol p 1 maximal response): 7.2
Proliferative response, stimulation index (RGP-specific TCL; [7]): 3.5
Proliferative response, stimulation index (RGP-specific TCL; [4]): 3.5
IL-5, proliferation inducing peptides [1, 5]: 26.5 pg/mL
IFN-γ, proliferation inducing peptides [2, 5]: 38.8 pg/mL

Lol p 5 peptide 190-209: synthetic 20-mer, amino acids 190-209 of Lol p 5A (SEQ ID NO:2) (GAYETYKFIPSLEAAVKQAY; Lolium perenne)
Proliferative response, stimulation index (RGP-specific TCL; Subject 2 TCL, Lol p 5 series (Table 4), RGP and Lol p 5 maximal response): 3.0
Proliferative response, stimulation index (RGP-specific TCL; Subject 4 TCL, Lol p 5 series (Table 4), RGP and Lol p 5 maximal response): 5.1
Proliferative response, stimulation index (RGP-specific TCL; Subject 11 TCL, Lol p 5 series (Table 4), RGP and Lol p 5 maximal response): 4.0
Proliferative response, stimulation index (RGP-specific TCL; Subject 29 TCL, Lol p 5 series (Table 4), RGP and Lol p 5 maximal response): 3.1
IL-5, proliferation inducing peptides [1, 9]: 518.1 pg/mL
IFN-γ, proliferation inducing peptides [2, 9]: 7.8 pg/mL

— US20060084789A1, “Immunotherapeutic and immunoprphylactic reagents” (priority 2002, published 2006)
